From PubChem BioAssay (NCI)
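The compound was tested at five concentrations on cells cultured in 96-well plates, with a 48-hour exposure period. Definition used: TGI = concentration required for complete inhibition of growth.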

Key:
Assay in all cases: NCI-60 cell line screen, 48 h
ACHN renal = tested on: ACHN renal
SK-MEL-28 melanoma = tested on: SK-MEL-28 melanoma
K-562 leukemia = tested on: K-562 leukemia
NCI-H522 lung = tested on: NCI-H522 lung
OVCAR-8 ovarian = tested on: OVCAR-8 ovarian
M14 melanoma = tested on: M14 melanoma
786-0 renal = tested on: 786-0 renal
HT29 colon = tested on: HT29 colon
OVCAR-3 ovarian = tested on: OVCAR-3 ovarian
RPMI-8226 leukemia = tested on: RPMI-8226 leukemia
SF-539 CNS = tested on: SF-539 CNS
HL-60(TB) leukemia = tested on: HL-60(TB) leukemia
UACC-257 melanoma = tested on: UACC-257 melanoma
RXF-631 renal = tested on: RXF-631 renal
DLD-1 colon = tested on: DLD-1 colon
SR leukemia = tested on: SR leukemia
IGROV1 ovarian = tested on: IGROV1 ovarian
SN12C renal = tested on: SN12C renal
COLO 205 colon = tested on: COLO 205 colon
CAKI-1 renal = tested on: CAKI-1 renal
SK-MEL-2 melanoma = tested on: SK-MEL-2 melanoma
KM20L2 colon = tested on: KM20L2 colon
LOX IMVI melanoma = tested on: LOX IMVI melanoma
DMS 273 small cell lung = tested on: DMS 273 small cell lung
OVCAR-5 ovarian = tested on: OVCAR-5 ovarian
SNB-78 CNS = tested on: SNB-78 CNS
OVCAR-4 ovarian = tested on: OVCAR-4 ovarian
MOLT-4 leukemia = tested on: MOLT-4 leukemia
DMS 114 small cell lung = tested on: DMS 114 small cell lung
SNB-19 CNS = tested on: SNB-19 CNS
NCI-H226 lung = tested on: NCI-H226 lung
CCRF-CEM leukemia = tested on: CCRF-CEM leukemia
HCT-116 colon = tested on: HCT-116 colon
HCC-2998 colon = tested on: HCC-2998 colon
RXF 393 renal = tested on: RXF 393 renal
LXFL 529 NSCLC = tested on: LXFL 529 NSCLC
HOP-62 NSCLC = tested on: HOP-62 NSCLC
A549 NSCLC = tested on: A549 NSCLC
KM12 colon = tested on: KM12 colon
SNB-75 CNS = tested on: SNB-75 CNS
UACC-62 melanoma = tested on: UACC-62 melanoma
NCI-H460 lung = tested on: NCI-H460 lung
HCT-15 colon = tested on: HCT-15 colon
NCI-H23 lung = tested on: NCI-H23 lung
SF-295 CNS = tested on: SF-295 CNS
UO-31 renal = tested on: UO-31 renal
U251 CNS = tested on: U251 CNS
TK-10 renal = tested on: TK-10 renal
SF-268 CNS = tested on: SF-268 CNS
EKVX NSCLC = tested on: EKVX NSCLC
A498 renal = tested on: A498 renal
SW-620 colon = tested on: SW-620 colon
SK-OV-3 ovarian = tested on: SK-OV-3 ovarian
MALME-3M melanoma = tested on: MALME-3M melanoma
HOP-18 NSCLC = tested on: HOP-18 NSCLC
HOP-92 NSCLC = tested on: HOP-92 NSCLC
M19-MEL melanoma = tested on: M19-MEL melanoma

## Cc1ccc(NC(=O)SCCC(=O)O)cc1
ACHN renal
  TGI: > 100 µM
SK-MEL-28 melanoma
  TGI: > 100 µM
K-562 leukemia
  TGI: > 100 µM
NCI-H522 lung
  TGI: > 100 µM
OVCAR-8 ovarian
  TGI: > 100 µM
M14 melanoma
  TGI: > 100 µM
786-0 renal
  TGI: > 100 µM
HT29 colon
  TGI: > 100 µM
OVCAR-3 ovarian
  TGI: > 100 µM
RPMI-8226 leukemia
  TGI: > 100 µM
SF-539 CNS
  TGI: > 100 µM
HL-60(TB) leukemia
  TGI: > 100 µM
UACC-257 melanoma
  TGI: > 100 µM
RXF-631 renal
  TGI: > 100 µM
DLD-1 colon
  TGI: > 100 µM
SR leukemia
  TGI: > 100 µM
IGROV1 ovarian
  TGI: > 100 µM
SN12C renal
  TGI: > 100 µM
COLO 205 colon
  TGI: > 100 µM
CAKI-1 renal
  TGI: > 100 µM
SK-MEL-2 melanoma
  TGI: > 100 µM
KM20L2 colon
  TGI: > 100 µM
LOX IMVI melanoma
  TGI: > 100 µM
DMS 273 small cell lung
  TGI: > 100 µM
OVCAR-5 ovarian
  TGI: > 100 µM
SNB-78 CNS
  TGI: > 100 µM
OVCAR-4 ovarian
  TGI: > 100 µM
MOLT-4 leukemia
  TGI: > 100 µM
DMS 114 small cell lung
  TGI: > 100 µM
SNB-19 CNS
  TGI: > 100 µM
NCI-H226 lung
  TGI: > 100 µM
CCRF-CEM leukemia
  TGI: > 100 µM
HCT-116 colon
  TGI: > 100 µM
HCC-2998 colon
  TGI: > 100 µM
RXF 393 renal
  TGI: > 100 µM
LXFL 529 NSCLC
  TGI: > 100 µM
HOP-62 NSCLC
  TGI: > 100 µM
A549 NSCLC
  TGI: > 100 µM
KM12 colon
  TGI: > 100 µM
SNB-75 CNS
  TGI: 66.7 µM
UACC-62 melanoma
  TGI: > 100 µM
NCI-H460 lung
  TGI: > 100 µM
HCT-15 colon
  TGI: > 100 µM
NCI-H23 lung
  TGI: > 100 µM
SF-295 CNS
  TGI: > 100 µM
UO-31 renal
  TGI: > 100 µM
U251 CNS
  TGI: > 100 µM
TK-10 renal
  TGI: > 100 µM
SF-268 CNS
  TGI: 94.9 µM
EKVX NSCLC
  TGI: > 100 µM
A498 renal
  TGI: > 100 µM
SW-620 colon
  TGI: > 100 µM

## CN/N=C(\C)c1c(O)cc(C)oc1=O
ACHN renal
  TGI: > 100 µM
SK-MEL-28 melanoma
  TGI: > 100 µM
K-562 leukemia
  TGI: > 100 µM
NCI-H522 lung
  TGI: > 100 µM
OVCAR-8 ovarian
  TGI: > 100 µM
M14 melanoma
  TGI: > 100 µM
786-0 renal
  TGI: > 100 µM
HT29 colon
  TGI: > 100 µM
SF-539 CNS
  TGI: > 100 µM
HL-60(TB) leukemia
  TGI: > 100 µM
UACC-257 melanoma
  TGI: > 100 µM
RXF-631 renal
  TGI: > 100 µM
SK-OV-3 ovarian
  TGI: > 100 µM
DLD-1 colon
  TGI: > 100 µM
SR leukemia
  TGI: > 100 µM
SN12C renal
  TGI: > 100 µM
CAKI-1 renal
  TGI: > 100 µM
SK-MEL-2 melanoma
  TGI: > 100 µM
KM20L2 colon
  TGI: > 100 µM
LOX IMVI melanoma
  TGI: > 100 µM
OVCAR-4 ovarian
  TGI: > 100 µM
MALME-3M melanoma
  TGI: > 100 µM
MOLT-4 leukemia
  TGI: > 100 µM
SNB-19 CNS
  TGI: > 100 µM
NCI-H226 lung
  TGI: > 100 µM
CCRF-CEM leukemia
  TGI: > 100 µM
HCT-116 colon
  TGI: > 100 µM
HCC-2998 colon
  TGI: > 100 µM
LXFL 529 NSCLC
  TGI: > 100 µM
HOP-62 NSCLC
  TGI: > 100 µM
A549 NSCLC
  TGI: > 100 µM
KM12 colon
  TGI: > 100 µM
SNB-75 CNS
  TGI: > 100 µM
UACC-62 melanoma
  TGI: > 100 µM
NCI-H460 lung
  TGI: > 100 µM
HCT-15 colon
  TGI: > 100 µM
HOP-18 NSCLC
  TGI: > 100 µM
NCI-H23 lung
  TGI: > 100 µM
SF-295 CNS
  TGI: > 100 µM
UO-31 renal
  TGI: > 100 µM
U251 CNS
  TGI: > 100 µM
TK-10 renal
  TGI: > 100 µM
SF-268 CNS
  TGI: > 100 µM
HOP-92 NSCLC
  TGI: > 100 µM
EKVX NSCLC
  TGI: > 100 µM
M19-MEL melanoma
  TGI: > 100 µM
A498 renal
  TGI: > 100 µM
SW-620 colon
  TGI: > 100 µM
